Test results: patent publication US20240279220A1, “INDOLE COMPOUNDS AND METHODS OF USE” (Genzyme Corporation, priority 2021, published 2024)

System: NBD1/3D
Assay: Aggregation analysis using differential static light scattering (DSLS), NBD1 thermal stability
Format: binding, Human
Settings: ΔTagg versus DMSO control; compound at 100 μM
Description: Purified recombinant NBD1 was produced using previously described methods (A. Schmidt, J. L. Mendoza, P. J. Thomas (2011) Biochemical and Biophysical Approaches to Probe CFTR Structure (365-376) M. D. Amaral, K. Kunzelmann (eds.), Cystic Fibrosis, Methods in Molecular Biology 741, Springer Science+Business Media). The effect of test compounds on thermal stability of NBD1 was evaluated by differential static light scattering (DSLS) using the Harbinger Stargazer-384 instrument (Epiphyte Three, Toronto, Canada).
Test compounds were dissolved and diluted to desired concentrations in 100% DMSO. The compounds or DMSO controls (100 nL) were stamped into wells of a […] low volume optical plate (Corning Inc., Corning, NY) using the Echo 555 acoustic liquid handler (Labcyte Inc., San Jose, CA).
NBD1 protein was diluted to 0.2 mg/ml in S200 buffer (50 mM Tris-HCl, 150 mM NaCl, 5 mM MgCl2, 2 mM ATP, 2 mM DTT, pH7.6) containing 1% glycerol. 10 uL of protein solution was aliquoted into the 384-well plate harboring the test compounds and 10 uL mineral oil was overlayed onto the protein solution, using the epMotion robotic liquid handler (Eppendorf North America, Hauppauge, NY). After placing into the Stargazer instrument, the plate was heated at 1° C. per minute to 70° C. Images were captured from 25° C. to 70° C. every 0.5° C. At the end of the experiment run, instrument software integrated image files and analyzed data automatically. A […] regression curve was generated for each well, representing the increase in light scattering over time. A temperature of aggregation (Tagg) was calculated based on the inflection point of the curve. To better compare data across experiments the average Tagg for DMSO control wells was calculated and subtracted from values for wells containing compounds to obtain a “ΔTagg” value. These ΔTagg values reflect stabilizing efficacy of the compounds.

| SMILES | DSLS NBD1/3D Human Stability delta-T (° C.) @ 100 (μM) |
| --- | --- |
| CC(O)(c1cccc([C@@H]2C[C@H]2C(=O)O)c1)c1c[nH]c(-c2cccc(Oc3c(F)cc4[nH]ccc4c3F)c2)n1 (mixture of isomers) [Example 184, rac-(1r,2r)-2-(3-(1-(2-(3-((4,6-Difluoro-1H-indol-5-yl)oxy)phenyl)-1H-imidazol-4-yl)-1-hydroxyethyl)phenyl)cyclopropane-1-carboxylic acid] | B (B: 5-10° C.) |
| Cc1c(Oc2cccc(-c3nnc(Cc4cccc([C@@H]5C[C@H]5C(=O)O)c4)[nH]3)c2)ccc2[nH]ccc12 (racemic) [Example 243, rac-(1R,2R)-2-(3-((5-(3-((4-Methyl-1H-indol-5-yl)oxy)phenyl)-4H-1,2,4-triazol-3-yl)methyl)phenyl)cyclopropane-1-carboxylic acid] | B (B: 5-10° C.) |
| Cc1c(Oc2ccc(F)c(-c3ncc([C@]4(c5cccc(CCC(=O)O)c5)C[C@@H](O)CO4)[nH]3)c2)c(F)cc2[nH]ccc12 (racemic) [Example 275, rac-3-(3-((2r,4r)-2-(2-(2-Fluoro-5-((6-fluoro-4-methyl-1H-indol-5-yl)oxy)phenyl)-1H-imidazol-5-yl)-4-hydroxytetrahydrofuran-2-yl)phenyl)propanoic acid] | B (B: 5-10° C.) |
| Cc1c(Oc2ccc(F)c(-c3ncc(C(C)c4cccc([C@@H]5C[C@H]5C(=O)O)c4F)[nH]3)c2)c(F)cc2[nH]ccc12 (relative stereo) [Example 139E, trans-2-(2-fluoro-3-(1-(2-(2-fluoro-5-((6-fluoro-4-methyl-1H-indol-5-yl)oxy)phenyl)-1H-imidazol-5-yl)ethyl)phenyl)cyclopropane-1-carboxylic acid] | B (B: 5-10° C.) |
| CC(c1ccn(-c2cccc(Oc3c(F)cc4[nH]ccc4c3S(C)(=O)=O)c2)n1)c1cccc(CCC(=O)O)c1F (single isomer, unassigned) [Example 23A, 3-(2-fluoro-3-(1-(1-(3-((6-fluoro-4-(methylsulfonyl)-1H-indol-5-yl)oxy)phenyl)-1H-pyrazol-3-yl)ethyl)phenyl)propanoic acid] | C (C: ≤5° C.) |
| CC(c1cccc(CCC(=O)O)c1F)n1ccc(-c2cc(Oc3c(F)cc4[nH]ccc4c3S(C)(=O)=O)ccc2F)n1 (single isomer, unassigned) [Example 41A, 3-(2-fluoro-3-(1-(3-(2-fluoro-5-((6-fluoro-4-(methylsulfonyl)-1H-indol-5-yl)oxy)phenyl)-1H-pyrazol-1-yl)ethyl)phenyl)propanoic acid] | C (C: ≤5° C.) |
| CC(c1coc(-c2cc(Oc3c(F)cc4[nH]ccc4c3S(C)(=O)=O)ccc2F)n1)c1cccc(CCC(=O)O)c1F (single isomer, unassigned) [Example 43B, 3-(2-fluoro-3-(1-(2-(2-fluoro-5-((6-fluoro-4-(methylsulfonyl)-1H-indol-5-yl)oxy)phenyl)oxazol-4-yl)ethyl)phenyl)propanoic acid] | C (C: ≤5° C.) |
| [2H]C([2H])([2H])C(C#N)(c1cc(F)cc(CCC(=O)O)c1)c1c[nH]c(-c2cc(Oc3c(F)c(F)c4[nH]ccc4c3F)ccc2F)n1 (single isomer, unassigned) [Example 65, 3-(3-(1-cyano-1-(2-(2-fluoro-5-((4,6,7-trifluoro-1H-indol-5-yl)oxy)phenyl)-1H-imidazol-4-yl)ethyl-2,2,2-d3)-5-fluorophenyl)propanoic acid] | B (B: 5-10° C.) |
| [2H]C([2H])([2H])C(C#N)(c1cc(F)cc(CCC(=O)O)c1)c1c[nH]c(-c2cc(Oc3c(F)c(F)c4[nH]ccc4c3F)ccc2F)n1 (single isomer, unassigned) [Example 66, 3-(3-(1-cyano-1-(2-(2-fluoro-5-((4,6,7-trifluoro-1H-indol-5-yl)oxy)phenyl)-1H-imidazol-4-yl)ethyl-2,2,2-d3)-5-fluorophenyl)propanoic acid] | B (B: 5-10° C.) |
| [2H]c1c[nH]c2c(F)c(F)c(Oc3ccc(F)c(-c4nc(C(C#N)(c5cc(F)cc(CCC(=O)O)c5)C([2H])([2H])[2H])c[nH]4)c3)c(F)c12 (single isomer, unassigned) [Example 67A, 3-(3-(1-cyano-1-(2-(2-fluoro-5-((4,6,7-trifluoro-1H-indol-5-yl-3-d)oxy)phenyl)-1H-imidazol-4-yl)ethyl-2,2,2-d3)-5-fluorophenyl)propanoic acid] | B (B: 5-10° C.) |
| CS(=O)(=O)c1c(Oc2ccc(F)c(-c3ncc(Cc4ccc5c(c4)CC(C(=O)O)C5)[nH]3)c2)c(F)cc2[nH]ccc12 (single isomer, unassigned) [Example 83A, 5-((2-(2-Fluoro-5-((6-fluoro-4-(methylsulfonyl)-1H-indol-5-yl)oxy)phenyl)-1H-imidazol-5-yl)methyl)-2,3-dihydro-1H-indene-2-carboxylic acid] | B (B: 5-10° C.) |
| CS(=O)(=O)c1c(Oc2ccc(F)c(-c3ncc(Cc4ccc5c(c4)CC(C(=O)O)C5)[nH]3)c2)c(F)cc2[nH]ccc12 (single isomer, unassigned) [Example 83B, 5-((2-(2-Fluoro-5-((6-fluoro-4-(methylsulfonyl)-1H-indol-5-yl)oxy)phenyl)-1H-imidazol-5-yl)methyl)-2,3-dihydro-1H-indene-2-carboxylic acid] | B (B: 5-10° C.) |
| CC(c1c[nH]c(-c2cc(Oc3c(F)cc4[nH]ccc4c3S(C)(=O)=O)ccc2F)n1)c1cccc(CC(=O)O)c1F (single isomer, unassigned) [Example 85, 2-(2-fluoro-3-(1-(2-(2-fluoro-5-((6-fluoro-4-(methylsulfonyl)-1H-indol-5-yl)oxy)phenyl)-1H-imidazol-4-yl)ethyl)phenyl)acetic acid] | B (B: 5-10° C.) |
| CC(c1cnc(-c2cc(Oc3c(F)cc4[nH]ccc4c3CC(F)(F)F)ccc2F)[nH]1)c1cccc(CCC(=O)O)c1F (single isomer, unassigned) [Example 128A, 3-(2-fluoro-3-(1-(2-(2-fluoro-5-((6-fluoro-4-(2,2,2-trifluoroethyl)-1H-indol-5-yl)oxy)phenyl)-1H-imidazol-5-yl)ethyl)phenyl)propanoic acid] | B (B: 5-10° C.) |
| CC(c1c[nH]c(-c2cc(Oc3c(F)cc4[nH]ccc4c3CC(F)F)ccc2F)n1)c1cccc(CCC(=O)O)c1F (single isomer, unassigned) [Example 129B, 3-(3-(1-(2-(5-((4-(2,2-difluoroethyl)-6-fluoro-1H-indol-5-yl)oxy)-2-fluorophenyl)-1H-imidazol-4-yl)ethyl)-2-fluorophenyl)propanoic acid] | C (C: ≤5° C.) |
| CC(C)OCCOCCC(c1cnc(-c2cc(Oc3c(F)cc4[nH]ccc4c3F)ccc2F)[nH]1)c1cccc(CCC(=O)O)c1F (single isomer, unassigned) [Example 130A, 3-(3-(1-(2-(5-((4,6-difluoro-1H-indol-5-yl)oxy)-2-fluorophenyl)-1H-imidazol-5-yl)-3-(2-isopropoxyethoxy)propyl)-2-fluorophenyl)propanoic acid] | C (C: ≤5° C.) |
| CC(c1cnc(-c2cc(Oc3c(F)cc4[nH]ccc4c3F)ccc2F)[nH]1)c1cccc(CC(=O)O)c1F (single isomer, unassigned) [Example 131B, 2-(3-(1-(2-(5-((4,6-difluoro-1H-indol-5-yl)oxy)-2-fluorophenyl)-1H-imidazol-5-yl)ethyl)-2-fluorophenyl)acetic acid] | B (B: 5-10° C.) |
| CC(c1cnc(-c2cc(Oc3c(F)cc4[nH]ccc4c3F)ccc2F)[nH]1)c1cc(F)cc(CCC(=O)O)c1F (single isomer, unassigned) [Example 132A, 3-(3-(1-(2-(5-((4,6-difluoro-1H-indol-5-yl)oxy)-2-fluorophenyl)-1H-imidazol-5-yl)ethyl)-2,5-difluorophenyl)propanoic acid] | C (C: ≤5° C.) |
| CC(c1cnc(-c2cc(Oc3c(F)cc4[nH]ccc4c3CP(C)(C)=O)ccc2F)[nH]1)c1cccc(CCC(=O)O)c1F (single isomer, unassigned) [Example 133A, 3-(3-(1-(2-(5-((4-((dimethylphosphoryl)methyl)-6-fluoro-1H-indol-5-yl)oxy)-2-fluorophenyl)-1H-imidazol-5-yl)ethyl)-2-fluorophenyl)propanoic acid] | C (C: ≤5° C.) |
